Experimental data from patent US20110014260A1, “SYSTEM AND METHOD FOR LIVER CELL CULTURE AND MATURATION” (priority 2007, published 2011).

Assays:
Type in all cases: cell-based, mouse
[1] = test system: day 17 EB derived hepatocyte lineage cells (ES cell line D3); experiment: In situ indirect immunofluorescent intracellular albumin analysis; parameters: key to Intracellular ALB: A (+) represents at least one time point of significant expression or secretion function in the three conditions.; A (−) represents functions which were absent on all experimental days
Method: In order to induce differentiation, cells were suspended in Iscove's modified Dulbecco's medium (Gibco) containing 20% fetal bovine serum (Gibco), 4 mM L-glutamine (Gibco), 100 U/ml penicillin, 100 U/ml streptomycin (Gibco), 10 ug/ml gentamicin (Gibco). Embryoid bodies were formed and cultured for two days using the hanging drop method (1×10^3 ES cells per 30 ul drop). Hanging drops where transferred to suspension culture in 100 mm petri dishes and cultured for an additional 2 days. The EB's were then plated, one EB per well, in 6 well tissue culture polystyrene plates (BD-Biosciences) for an additional 14 days. For secondary culture day 17 EBs cells were detached following incubation with 0.5 ml of trypsin (Gibco) for three minutes, resulting in a single cell suspension, and subsequently the addition of IMDM media. Cells from day 17 EB's were used because it has been observed that hepatocyte function is greatest on day 17. Cells were then re-plated in 6 well tissue culture polystyrene (BD-Biosciences) at an initial seeding density of 5×10^4 day 17 cells per well for further analysis. Culture medium was changed every forty eight hours. When OSM and SNAP were supplemented, 10 ng/ml OSM and 250 μM SNAP were added to the culture medium. When collagen sandwich culture was used, rat tail type I collagen (BD-Biosciences) gels were prepared by distributing 350 μL of collagen gel solution (3 parts 1.33×DMEM, pH 7.4, and 1 part collagen solution at 4 mg/mL, chilled on ice and mixed immediately prior to use) evenly over one well of a six well plate (BD-Biosciences) and incubated at 37° C. for at least one hour before use. 5×10^5 cells were seeded in 2 mL of IMDM media on day 0 and an additional 350 μL of collagen gel solution was distributed over the cells after 1 day of culture. Therefore, the second layer of collagen is added on day 1 of secondary culture protocol. One hour of incubation at 37° C. was allowed for gelation and attachment of the second gel layer before the medium was replaced. Culture medium was changed every forty eight hours. […]

[2] = test system: day 17 EB derived hepatocyte lineage cells (ES cell line D3); experiment: In situ indirect immunofluorescent cytokeratin-18 analysis; parameters: key to CK18: A (+) represents at least one time point of significant expression or secretion function in the three conditions.; A (−) represents functions which were absent on all experimental days
Method: (§1) In order to induce differentiation, cells were suspended in Iscove's modified Dulbecco's medium (Gibco) containing 20% fetal bovine serum (Gibco), 4 mM L-glutamine (Gibco), 100 U/ml penicillin, 100 U/ml streptomycin (Gibco), 10 ug/ml gentamicin (Gibco). Embryoid bodies were formed and cultured for two days using the hanging drop method (1×10^3 ES cells per 30 ul drop). Hanging drops where transferred to suspension culture in 100 mm petri dishes and cultured for an additional 2 days. The EB's were then plated, one EB per well, in 6 well tissue culture polystyrene plates (BD-Biosciences) for an additional 14 days. For secondary culture day 17 EBs cells were detached following incubation with 0.5 ml of trypsin (Gibco) for three minutes, resulting in a single cell suspension, and subsequently the addition of IMDM media. Cells from day 17 EB's were used because it has been observed that hepatocyte function is greatest on day 17. Cells were then re-plated in 6 well tissue culture polystyrene (BD-Biosciences) at an initial seeding density of 5×10^4 day 17 cells per well for further analysis. Culture medium was changed every forty eight hours. When OSM and SNAP were supplemented, 10 ng/ml OSM and 250 μM SNAP were added to the culture medium. […]

[3] = test system: day 17 EB derived hepatocyte lineage cells (ES cell line D3); experiment: Sandwich ELISA for detection of albumin secretion; parameters: key to ALB Secretion: A (+) represents at least one time point of significant expression or secretion function in the three conditions.; A (−) represents functions which were absent on all experimental days
Method: as §1, with “17.” for “17. Cells were then re-plated in 6 well tissue culture polystyrene (BD-Biosciences) at an initial seeding density of 5×10^4 day 17 cells per well for further analysis. Culture medium was changed every forty eight hours. When OSM and SNAP were supplemented, 10 ng/ml OSM and 250 μM SNAP were added to the culture medium.”
In order to detect secreted albumin within the media supernatants obtained on each of the analysis days, we used a commercially available mouse albumin ELISA kit (Bethyl Laboratories, #E90-134). […] Absorbance readings were obtained using a Biorad (Hercules, Calif.) Model 680 plate reader with a 450 nm emission filter. Albumin values were normalized to the cell number recorded on the day of media sample collection.

[4] = test system: day 17 EB derived hepatocyte lineage cells (ES cell line D3); experiment: Urea secretion; parameters: key to Urea: A (+) represents at least one time point of significant expression or secretion function in the three conditions.; A (−) represents functions which were absent on all experimental days
Method: as §1, with “analysis.” for “analysis. Culture medium was changed every forty eight hours. When OSM and SNAP were supplemented, 10 ng/ml OSM and 250 μM SNAP were added to the culture medium.”
Media samples were collected on all analysis days. […] Absorbance readings were obtained using a Biorad (Hercules, Calif.) Model 680 plate reader with a 585 nm emission filter. Urea values were normalized to the cell number recorded on the day of media sample collection.

[5] = test system: day 17 EB derived hepatocyte lineage cells (ES cell line D3); experiment: Cytochrome P450 activity (resorufin o-dealkylase, BROD/MROD); parameters: key to CYP450: A (+) represents at least one time point of significant expression or secretion function in the three conditions.; A (−) represents functions which were absent on all experimental days
Method: On evaluation days 4, 6, 8 and 10 days in secondary culture, cells were re-plated into 12 well plates. 3-Methylcholanthrene was used at a concentration of 2 μM (Sigma-Aldrich) for 48 hours prior to the addition of resorufin as an inducer of cytochrome P450 activities. Cytochrome P450-dependent resorufin o-dealkylase activity (BROD, PROD, EROD, and MROD) was measured using resorufin substrates namely pentoxy-, benzyloxy-, ethoxy-, and methoxyresorufin from a Resorufin Sampler Kit (Invitorgen, Carlsbad, Calif.). […] The fluorescence of the plate was measured using a fluorescence plate reader (DTX880, Beckman Coltour, Fullerton, Calif., ext. 530 nm and emis. 590 nm) at the end of min incubation. A standard curve of resorufin fluorescence was constructed using concentrations ranging from 1 to 1,000 nmol in EBSS. […] The constructed standard curve was used to convert the fluorescence values obtained from the plate reader to nanomoles of resorufin. Rate of formation of resorufin, as calculated from the early linear increase in the fluorescence curve, was defined as cytochrome P450 activity and expressed as nmol/min.
Cytochrome P450 enzymes play a key role in detoxifying xenobiotics and were used in these studies to asses hepatocyte function. […] BROD and MROD activity can be determined from the enzymatic conversion of resorufin.

[6] = test system: day 17 EB derived hepatocyte lineage cells (ES cell line D3); experiment: Glycogen storage; parameters: key to Glycogen: A (+) represents at least one time point of significant expression or secretion function in the three conditions.; A (−) represents functions which were absent on all experimental days
[7] = test system: day 17 EB derived hepatocyte lineage cells (ES cell line D3); experiment: Cell number / proliferation in secondary culture; settings: collagen sandwich configuration, within 10 days
Method: as §1, with “media.” for “media. Cells from day 17 EB's were used because it has been observed that hepatocyte function is greatest on day 17. Cells were then re-plated in 6 well tissue culture polystyrene (BD-Biosciences) at an initial seeding density of 5×10^4 day 17 cells per well for further analysis. Culture medium was changed every forty eight hours. When OSM and SNAP were supplemented, 10 ng/ml OSM and 250 μM SNAP were added to the culture medium.”
Therefore, cultures were established to study the maintenance and augmentation of hepatocyte like function previously observed after 17 days of spontaneous EB mediated differentiation. Hepatocyte lineage maintenance was initially assessed by examining the dynamics of cell growth following removal of cells from their primary EB culture and re-plating into tissue culture polystyrene. 5×10^4 cells from day 17 EB cultures were re-plated into one well of a six well plate and evaluated on days 4, 6, 8 and 10 days post re-plating. […]

[8] = polystyrene secondary culture, 10 ng/ml OSM or 250 μM SNAP, days 4-10
[9] = polystyrene culture, OSM or SNAP supplemented

Oncostatin-M [OSM]
albumin expression (percentage of cells expressing albumin) ([1]; collagen sandwich culture, 10 days post re-plating): 80%
Intracellular ALB [1, 8]: +
Time for which ALB expression was maintained ([1]; polystyrene secondary/tertiary culture, supplemented, SNAP at a lower level): up to eight
CK18 expression [2, 9]: not detected at any level
CK18 [2, 8]: −
albumin secretion [3, 9]: not detected at any level
ALB Secretion [3, 8]: −
Urea secretion time course ([4]; polystyrene culture, supplemented): greatest at day eight
Urea [4, 8]: +
CYP450 mediated detoxification [5, 9]: not detected at any level
CYP450 [5, 8]: −
glycogen storage [6, 9]: not detected at any level
Glycogen [6, 8]: −
cell number reached from 5×10^4 Day 17 cells [7]: 1×10^6 cells
